This note sets out measurements from patent US20250230226A1, “PLXDC1/PLXDC2 ACTIVATORS AND THEIR USE IN THE TREATMENT OF BLOOD VESSEL DISORDERS” (THE REGENTS OF THE UNIVERSITY OF CALIFORNIA, priority 2019, published 2025).

For this assay, the system named is LL/2 lung cancer tumor endothelial cells. In words: Lung LL2 ex vivo model of tumor angiogenesis. Type of assay: cell-based, mouse. To be noted: for 48 hrs (morphology observations): LL/2 tumor endothelial cells; for Cell death: drug treatment for two days, ratio of red area to total endothelial cell area. The gist of the method:
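LL2 mouse tumor fragments (~0.075 mm³) embedded in Matrigel and cultured in endothelial growth medium at 37 °C until endothelial outgrowth (~4 days) before treatment. Cell death assessed e.g. 48 h after drug by fluorescein diacetate (live)/propidium iodide (dead) staining and red/green fluorescence imaging.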

Where [1] appears, read: Mus musculus, Endothelial cell, 48 h, read-out: Cell death.

Regarding `CCCCOc1ccc(S(=O)(=O)c2cnc3ccc([S+](C)[O-])cc3c2N2CCC(N3CCC(CO)CC3)CC2)cc1` (stereo not drawn) [Compound 240], for the setting “40 μm”, the “48 hrs (morphology observations)” value was 0 and the Cell death amounted to 30%.
For `CCN(CC)CCOc1ccc(S(=O)(=O)c2cnc3ccc(SC)cc3c2N2CCCN(C)CC2)cc1` [Compound 242] the same measures were 0 and 30%.
The like results for `CCCCOc1ccc(S(=O)(=O)c2cnc3ccc(SC)cc3c2N2CCC(N3CCSCC3)CC2)cc1` [Compound 243] were, in that order, 0 and 20%.
For the molecule `CCCCOc1ccc(S(=O)(=O)c2cnc3ccc(C(=O)OCC)cc3c2N2CCC(N3CC[S+]([O-])CC3)CC2)cc1` [Compound 244], the “48 hrs (morphology observations)” value (40 μm) was 0. Further, the cytotoxicity at 40 µM under setting [1] stood at 20%.
`CCCCOc1ccc(S(=O)(=O)c2cnc3ccc([S+](C)[O-])cc3c2N2CCC(N3CCSCC3)CC2)cc1` (stereo not drawn) [Compound 245]: under “40 μm”, the “48 hrs (morphology observations)” value is listed as 0 and the Cell death came to 40%.
For `CCCCCCCOc1ccc(S(=O)(=O)c2cnc3ccc(SC)cc3c2N2CCC(N3CCN(C)CC3)CC2)cc1` [Compound 246], under “20 μm”, the “48 hrs (morphology observations)” value is given as “*** (more than 50% but less than 100% of endothelial cells vesicularize in cell shape)” and the Cell death was determined as 95%.
For `CCCCCCCOc1ccc(S(=O)(=O)c2cnc3ccc(SC)cc3c2N2CCC(N3CCCC(O)C3)CC2)cc1` (stereo not drawn) [Compound 247] the same measures were “*** (more than 50% but less than 100% of endothelial cells vesicularize in cell shape)” and 60%.
The like results for `CCCCCCCOc1ccc(S(=O)(=O)c2cnc3ccc(SC)cc3c2N2CCCN(CCN3CCCCC3)CC2)cc1` [Compound 248] were, in that order, “* (50% or less of cells vesicularize in cell shape)” and 60%.
As to `CCCCCCCOc1ccc(S(=O)(=O)c2cnc3ccc(SC)cc3c2N2CCC(N3CCCN(C)CC3)CC2)cc1` [Compound 249], where the note is “20 μm”, the “48 hrs (morphology observations)” value is given as “*** (more than 50% but less than 100% of endothelial cells vesicularize in cell shape)” and the Cell death is reported as 60%.
For `CCCCCCCOc1ccc(S(=O)(=O)c2cnc3ccc(SC)cc3c2N2CCC(N3CCN(CCO)CC3)CC2)cc1` [Compound 250] the same measures were “*** (more than 50% but less than 100% of endothelial cells vesicularize in cell shape)” and 90%.
Turning to `CCCCCCCOc1ccc(S(=O)(=O)c2cnc3ccc(SC)cc3c2N2CCC(N3CCC(N4CCCCC4)CC3)CC2)cc1` [Compound 251], where the note is “20 μm”, the “48 hrs (morphology observations)” value was “*** (more than 50% but less than 100% of endothelial cells vesicularize in cell shape)” and the Cell death was found to be 60%.
Turning to `CCCCCCCOc1ccc(S(=O)(=O)c2cnc3ccc(SC)cc3c2N2CCC(N3CCC(O)(c4ccccc4)CC3)CC2)cc1` [Compound 262], for the setting “10 μm”, the “48 hrs (morphology observations)” value is 0 and the Cell death is given as 20%.
As to `CCCCCCCOc1ccc(S(=O)(=O)c2cnc3ccc([S+](C)[O-])cc3c2N2CCC(N3CCC(O)(c4ccccc4)CC3)CC2)cc1` (stereo not drawn) [Compound 263], where the note is “10 μm”, the “48 hrs (morphology observations)” value is “**** (100% of endothelial cells vesicularize in cell shape and look flattened in morphology (indicating disintegration of the cell body))”.
In the case of `CCCCCCCCCCOc1ccc(S(=O)(=O)c2cnc3ccc([S+](C)[O-])cc3c2N2CCC(N3CCN(C)CC3)CC2)cc1` (stereo not drawn) [Compound 264], for the setting “10 μm”, the “48 hrs (morphology observations)” value is given as “* (50% or less of cells vesicularize in cell shape)” and the Cell death came to 20%.
Take `CCCCCCCCCCOc1ccc(S(=O)(=O)c2cnc3ccc([S+](C)[O-])cc3c2N2CCC(N3CCCC(O)C3)CC2)cc1` (stereo not drawn) [Compound 265]: for the setting “10 μm”, the “48 hrs (morphology observations)” value is “* (50% or less of cells vesicularize in cell shape)” and the Cell death was 20%.
`CCCCCCCCCCOc1ccc(S(=O)(=O)c2cnc3ccc([S+](C)[O-])cc3c2N2CCCN(CCN3CCCCC3)CC2)cc1` (stereo not drawn) [Compound 266]: for the setting “10 μm”, the “48 hrs (morphology observations)” value came out at 0 and the Cell death was 5%.
For `CCCCCCCCCCOc1ccc(S(=O)(=O)c2cnc3ccc([S+](C)[O-])cc3c2N2CCC(N3CCCN(C)CC3)CC2)cc1` (stereo not drawn) [Compound 267] the same measures were 0 and 5%.
Take `CCCCCCCCCCOc1ccc(S(=O)(=O)c2cnc3ccc([S+](C)[O-])cc3c2N2CCC(N3CCN(CCO)CC3)CC2)cc1` (stereo not drawn) [Compound 268]: where the note is “20 μm”, the “48 hrs (morphology observations)” value is on record as “*** (more than 50% but less than 100% of endothelial cells vesicularize in cell shape)” and the Cell death was found to be 50%.
With `CCCCCCCCCCOc1ccc(S(=O)(=O)c2cnc3ccc([S+](C)[O-])cc3c2N2CCC(N3CCC(N4CCCCC4)CC3)CC2)cc1` (stereo not drawn) [Compound 269], where the note is “20 μm”, the “48 hrs (morphology observations)” value was “**** (100% of endothelial cells vesicularize in cell shape and look flattened in morphology (indicating disintegration of the cell body))”; the Cell death came to 100%.
Regarding `CCCCCCCCCCOc1ccc(S(=O)(=O)c2cnc3ccc([S+](C)[O-])cc3c2N2CCC(N3CCC(O)(c4ccccc4)CC3)CC2)cc1` (stereo not drawn) [Compound 270], the “48 hrs (morphology observations)” value (20 μm) was “* (50% or less of cells vesicularize in cell shape)”.
On to `CCCCCCCOc1ccc(S(=O)(=O)c2cnc3ccc(SC)cc3c2N2CCN(CCN3CCCC3)CC2)cc1` [Compound 272], for which, under “20 μm”, the “48 hrs (morphology observations)” value is on record as “* (50% or less of cells vesicularize in cell shape)” and the Cell death worked out at 20%.
As to `CCCCCCCOc1ccc(S(=O)(=O)c2cnc3ccc(SC)cc3c2N2CCN(C3CCN(C)CC3)CC2)cc1` [Compound 273], the “48 hrs (morphology observations)” value (20 μm) is on record as “*** (more than 50% but less than 100% of endothelial cells vesicularize in cell shape)”. Besides, under setting [1], the cytotoxicity at 20 µM stood at 60%.
As for `CCCCCCCOc1ccc(S(=O)(=O)c2cnc3ccc(SC)cc3c2N2CCN(C3CCN(Cc4ccccc4)C3)CC2)cc1` (stereo not drawn) [Compound 274], under “20 μm”, the “48 hrs (morphology observations)” value worked out at 0 and the Cell death stood at 10%.
For `CCCCCCCOc1ccc(S(=O)(=O)c2cnc3ccc(SC)cc3c2N2CCN(CC3CCN(Cc4ccccc4)CC3)CC2)cc1` [Compound 275] the same measures were 0 and 5%.
The like results for `CCCCCCCOc1ccc(S(=O)(=O)c2cnc3ccc([S+](C)[O-])cc3c2N2CCN(CCN3CCCC3)CC2)cc1` (stereo not drawn) [Compound 276] were, in that order, “*** (more than 50% but less than 100% of endothelial cells vesicularize in cell shape)” and 100%.
In the case of `CCCCCCCOc1ccc(S(=O)(=O)c2cnc3ccc([S+](C)[O-])cc3c2N2CCN(C3CCN(CC)CC3)CC2)cc1` (stereo not drawn) [Compound 277], the cytotoxicity at 10 µM under setting [1] is 60%.
With `CCCCCCCOc1ccc(S(=O)(=O)c2cnc3ccc([S+](C)[O-])cc3c2N2CCN(C3CCN(Cc4ccccc4)C3)CC2)cc1` (stereo not drawn) [Compound 278], for the setting “10 μm”, the “48 hrs (morphology observations)” value was “* (50% or less of cells vesicularize in cell shape)” and the Cell death is 50%.
As to `CCCCCCCOc1ccc(S(=O)(=O)c2cnc3ccc([S+](C)[O-])cc3c2N2CCN(CC3CCN(Cc4ccccc4)CC3)CC2)cc1` (stereo not drawn) [Compound 279], under “20 μm”, the “48 hrs (morphology observations)” value was “**** (100% of endothelial cells vesicularize in cell shape and look flattened in morphology (indicating disintegration of the cell body))”; the Cell death was 100%.
In the case of `CCCCCCCOc1ccc(S(=O)(=O)c2cnc3ccc(SC)cc3c2N2CCN(CCN3CCCCC3)CC2)cc1` [Compound 281], for the setting “20 μm”, the Cell death turned out to be 50%.
For `CCCCCCCOc1ccc(S(=O)(=O)c2cnc3ccc([S+](C)[O-])cc3c2N2CCN(CCN3CCCCC3)CC2)cc1` (stereo not drawn) [Compound 282], for the setting “10 μm”, the “48 hrs (morphology observations)” value was 0 and the Cell death came to 10%.
Regarding `CCCCCCCCCCOc1ccc(S(=O)(=O)c2cnc3ccc([S+](C)[O-])cc3c2N2CCN(C3CCN(CC)CC3)CC2)cc1` (stereo not drawn) [Compound 283], the “48 hrs (morphology observations)” value (10 μm) was found to be 0. The cytotoxicity at 10 µM under setting [1] turned out to be 5%.
For the molecule `CC(C)CCCC(C)CCOc1ccc(S(=O)(=O)c2cnc3ccc([S+](C)[O-])cc3c2N2CCC(N3CCN(CCO)CC3)CC2)cc1` (stereo not drawn) [Compound 284], under “10 μm”, the “48 hrs (morphology observations)” value amounted to 0 and the Cell death is 10%.
For `CCCCCCCCCCOc1ccc(S(=O)(=O)c2cnc3ccc([S+](C)[O-])cc3c2N2CCC(N3CCC(N4CCN(C)CC4)CC3)CC2)cc1` (stereo not drawn) [Compound 285] the same measures were “*** (more than 50% but less than 100% of endothelial cells vesicularize in cell shape)” and 60%.
For `CCCCCCCCCCOc1ccc(S(=O)(=O)c2cnc3ccc([S+](C)[O-])cc3c2N2CCC(N3CCC(N4CCOCC4)CC3)CC2)cc1` (stereo not drawn) [Compound 286], under “20 μm”, the “Cell death, read at 24 hrs” value turned out to be 0% and the “Endothelial cell morphology score at 24 hrs” value was determined as 0.
The like results for `CCCCCCCCCCOc1ccc(S(=O)(=O)c2cnc3ccc([S+](C)[O-])cc3c2N2CCC(N3CCC(N4CCCN(C)CC4)CC3)CC2)cc1` (stereo not drawn) [Compound 287] were, in that order, 40% and “* (50% or less of cells vesicularize in cell shape)”.
In the case of `CCCCCCCCCCOc1ccc(S(=O)(=O)c2cnc3ccc([S+](C)[O-])cc3c2N2CCC(N3CCC(N4CCCC(O)C4)CC3)CC2)cc1` (stereo not drawn) [Compound 288], under “10 μm”, the “48 hrs (morphology observations)” value was “*** (more than 50% but less than 100% of endothelial cells vesicularize in cell shape)” and the Cell death is listed as 50%.
For the molecule `CC(C)CCCC(C)CCOc1ccc(S(=O)(=O)c2cnc3ccc([S+](C)[O-])cc3c2N2CCC(N3CCC(N4CCCCC4)CC3)CC2)cc1` (stereo not drawn) [Compound 289], the Cell death (20 μm) came out at 20%.
